According to patent publication US20050042256A1, “Lipid blends and food products containing oleic fatty acid and omega-6 fatty acids, designed to increase the intramyocellular lipid level” (priority 2001, published 2005):

system: Human skeletal muscle cells; experiment: IMCL (triacylglycerol) accumulation in muscle cells incubated with fatty acids; format: cell-based; details: 0.5 mM FFA salt bound to albumin, DMEM + 25 mM glucose, 24 hrs at 37° C; FIGURE 1
Method: Human skeletal muscle cells were used as a model to test the effect that different fatty acids (as precursors) may have on the extent of muscle triglyceride storage.
Primary cultures were initiated from a bank of satellite cells of muscle biopsies obtained from patients free of muscle disease. Aneural muscle cultures were established in a monolayer, then they were grown in a DMEM-M-199 medium, 3:1, supplemented with 10% fetal bovine serum, 10 μg/ml insulin, 2 mM glutamine, 25 ng/ml fibroblast growth factor, and 10 ng/ml epidermal growth factor. Immediately after myoblast fusion, cells were rinsed in Hank's balanced salt solution and a medium devoid of FGF, EGF, and glutamine was added. Muscle cultures were maintained in this medium for up to 4 weeks.
Cells were incubated with DMEM+glucose (25 mM)+0.5 mM FFA salt bound to albumin (in independent experiments for each FFA), for 24 hrs at 37° C. As examples for the fatty acids used in blend 1 (promoting IMCL storage), oleate (C18:1 cis), linoleate (C18:2 cis/cis), n-6 linoleate and n-3 linoleate.
As examples for the fatty acids used in blend 2 (inhibiting IMCL storage), octanoate (C8:0), palinitate (C16:0) and stearate (C18:0).
After incubation, cell lipids were extracted according to the method of Bligh and Dyer (Can. J. Biochem Physiol 37: 911-917, 1959). To determine the IMCL content, extracts were prepared by scraping cell monolayers in a buffer consisting of 50 mM Tris, 100 mM KCl, 20 mM KF, 0.5 mM EDTA and 0.05% Lubrol PX, pH 7.9, and they were sonicated three times for 5 seconds. Homogenates were centrifuged at 11′000 g for 15 min and the resulting supernatants were collected. Total triacylglycerol (i.e. IMCL) was measured with a Cobas-Bio autoanalyzer with a GPO-Trinder kit, with triolein resuspended in the extraction buffer as a standard. The intramyocellular nature of the triglycerides was evidenced by histo-chemical staining with Sudan III in 70% ethanol.

Row | Structure (SMILES) | accumulation / synthesis of IMCL (total triacylglycerol)
1 | CCCCCCCCCCCCCCCCCC(=O)O [stearate, stearate (C18:0)] | moderate synthesis
2 | CCCCCCCC(=O)O [octanoate, octanoate (C8:0)] | no accumulation of IMCL
3 | CCCCC/C=C\C/C=C\CCCCCCCC(=O)O [linoleate, linoleate (C18:2 cis/cis)] | notably higher synthesis
4 | CCCCCCCC/C=C\CCCCCCCC(=O)O [oleate, oleate (C18:1 cis)] | notably higher synthesis
